Legend:
[1] = Toxicity in Salmonella typhimurium TA102 at 100 ug/plate measured after 20 mins in absence of S9 fraction by colony counting method; conditions: salmonella enterica subsp. enterica serovar typhimurium, dose 100 µg
RAW264.7 [2] = assay: Genotoxicity in mouse RAW264.7 cells assessed as mitotic index at 175 uM measured after 24 hrs by micronucleus test (reference value: 40 to 249); type: toxicity, cell-based; conditions: raw264.7, 24 h
RAW264.7 [3] = assay: Genotoxicity in mouse RAW264.7 cells assessed as mitotic index at 350 uM measured after 24 hrs by micronucleus test (reference value: 40 to 249); type: toxicity, cell-based; conditions: raw264.7, 24 h
RAW264.7 [4] = assay: Genotoxicity in mouse RAW264.7 cells assessed as number of micronucleated cells at 175 uM measured after 24 hrs by micronucleus test (reference value: 12 to 15); type: toxicity, cell-based; conditions: raw264.7, 24 h
RAW264.7 [5] = assay: Genotoxicity in mouse RAW264.7 cells assessed as number of micronucleated cells at 350 uM measured after 24 hrs by micronucleus test (reference value: 12 to 15); type: toxicity, cell-based; conditions: raw264.7, 24 h
[6] = Genotoxicity in mouse RAW264.7 cells assessed as survival at 175 uM measured after 24 hrs by micronucleus test (reference value: 100%); type: toxicity, cell-based; conditions: read-out: Survival
[7] = Genotoxicity in mouse RAW264.7 cells assessed as survival at 350 uM measured after 24 hrs by micronucleus test (reference value: 100%); type: toxicity, cell-based; conditions: read-out: Survival
[8] = Genotoxicity in mouse RAW264.7 cells assessed as survival at 1750 uM measured after 24 hrs by micronucleus test (reference value: 100%); type: toxicity, cell-based; conditions: read-out: Survival
[9] = Genotoxicity in mouse RAW264.7 cells assessed as survival at 3500 uM measured after 24 hrs by micronucleus test (reference value: 100%); type: toxicity, cell-based; conditions: read-out: Survival
HepG2 [10] = assay: Genotoxicity in human HepG2 assessed as mitotic index at 175 uM measured after 24 hrs by micronucleus test (reference value: 61 to 108); type: toxicity, cell-based; conditions: hepg2, 24 h
HepG2 [11] = assay: Genotoxicity in human HepG2 assessed as mitotic index at 350 uM measured after 24 hrs by micronucleus test (reference value: 61 to 108); type: toxicity, cell-based; conditions: hepg2, 24 h
HepG2 [12] = assay: Genotoxicity in human HepG2 assessed as mitotic index at 1750 uM measured after 24 hrs by micronucleus test (reference value: 61 to 108); type: toxicity, cell-based; conditions: hepg2, 24 h
HepG2 [13] = assay: Genotoxicity in human HepG2 assessed as mitotic index at 3500 uM measured after 24 hrs by micronucleus test (reference value: 61 to 108); type: toxicity, cell-based; conditions: hepg2, 24 h
HepG2 [14] = assay: Genotoxicity in human HepG2 assessed as number of micronucleated cells at 175 uM measured after 24 hrs by micronucleus test (reference value: 14 to 18); type: toxicity, cell-based; conditions: hepg2, 24 h
HepG2 [15] = assay: Genotoxicity in human HepG2 assessed as number of micronucleated cells at 3500 uM measured after 24 hrs by micronucleus test (reference value: 14 to 18); type: toxicity, cell-based; conditions: hepg2, 24 h
[16] = Genotoxicity in human HepG2 assessed as survival at 350 uM measured after 24 hrs by micronucleus test (reference value: 100%); type: toxicity, cell-based; conditions: HepG2 cells, read-out: Survival
[17] = Genotoxicity in human HepG2 assessed as survival at 1750 uM measured after 24 hrs by micronucleus test (reference value: 100%); type: toxicity, cell-based; conditions: HepG2 cells, read-out: Survival
[18] = Genotoxicity in human HepG2 assessed as survival at 3500 uM measured after 24 hrs by micronucleus test (reference value: 100%); type: toxicity, cell-based; conditions: HepG2 cells, read-out: Survival
RAW264.7 [19] = assay: Cytotoxicity against mouse RAW264.7 cells at 21.3 to 427 uM measured after 24 hrs by LDH assay; type: cell-based; conditions: raw264.7, 24 h, dose 21.3-427 µM
[20] = Toxicity in Salmonella typhimurium TA97 at 100 ug/plate measured after 20 mins in absence of S9 fraction by colony counting method; conditions: salmonella enterica subsp. enterica serovar typhimurium, dose 100 µg
[21] = Toxicity in Salmonella typhimurium YG1024 at 5 to 100 ug/plate after 20 mins by colony counting method; conditions: salmonella enterica subsp. enterica serovar typhimurium, dose 5-100 µg
RAW264.7 [22] = assay: Genotoxicity in mouse RAW264.7 cells assessed as mitotic index at 213 uM measured after 24 hrs by micronucleus test (reference value: 40 to 249); type: toxicity, cell-based; conditions: raw264.7, 24 h
RAW264.7 [23] = assay: Genotoxicity in mouse RAW264.7 cells assessed as mitotic index at 427 uM measured after 24 hrs by micronucleus test (reference value: 40 to 249); type: toxicity, cell-based; conditions: raw264.7, 24 h
RAW264.7 [24] = assay: Genotoxicity in mouse RAW264.7 cells assessed as mitotic index at 4270 uM measured after 24 hrs by micronucleus test (reference value: 40 to 249); type: toxicity, cell-based; conditions: raw264.7, 24 h
RAW264.7 [25] = assay: Genotoxicity in mouse RAW264.7 cells assessed as number of micronucleated cells at 213 uM measured after 24 hrs by micronucleus test (reference value: 12 to 15); type: toxicity, cell-based; conditions: raw264.7, 24 h
RAW264.7 [26] = assay: Genotoxicity in mouse RAW264.7 cells assessed as number of micronucleated cells at 427 uM measured after 24 hrs by micronucleus test (reference value: 12 to 15); type: toxicity, cell-based; conditions: raw264.7, 24 h
RAW264.7 [27] = assay: Genotoxicity in mouse RAW264.7 cells assessed as number of micronucleated cells at 4270 uM measured after 24 hrs by micronucleus test (reference value: 12 to 15); type: toxicity, cell-based; conditions: raw264.7, 24 h
[28] = Genotoxicity in mouse RAW264.7 cells assessed as survival at 213 uM measured after 24 hrs by micronucleus test (reference value: 100%); type: toxicity, cell-based; conditions: read-out: Survival
[29] = Genotoxicity in mouse RAW264.7 cells assessed as survival at 2135 uM measured after 24 hrs by micronucleus test (reference value: 100%); type: toxicity, cell-based; conditions: read-out: Survival
HepG2 [30] = assay: Genotoxicity in human HepG2 assessed as mitotic index at 213 uM measured after 24 hrs by micronucleus test (reference value: 61 to 108); type: toxicity, cell-based; conditions: hepg2, 24 h
HepG2 [31] = assay: Genotoxicity in human HepG2 assessed as mitotic index at 2135 uM measured after 24 hrs by micronucleus test (reference value: 61 to 108); type: toxicity, cell-based; conditions: hepg2, 24 h
HepG2 [32] = assay: Genotoxicity in human HepG2 assessed as mitotic index at 4270 uM measured after 24 hrs by micronucleus test (reference value: 61 to 108); type: toxicity, cell-based; conditions: hepg2, 24 h
HepG2 [33] = assay: Genotoxicity in human HepG2 assessed as number of micronucleated cells at 213 uM measured after 24 hrs by micronucleus test (reference value: 14 to 18); type: toxicity, cell-based; conditions: hepg2, 24 h
HepG2 [34] = assay: Genotoxicity in human HepG2 assessed as number of micronucleated cells at 2135 uM measured after 24 hrs by micronucleus test (reference value: 14 to 18); type: toxicity, cell-based; conditions: hepg2, 24 h
HepG2 [35] = assay: Genotoxicity in human HepG2 assessed as number of micronucleated cells at 4270 uM measured after 24 hrs by micronucleus test (reference value: 14 to 18); type: toxicity, cell-based; conditions: hepg2, 24 h
[36] = Genotoxicity in human HepG2 assessed as survival at 213 uM measured after 24 hrs by micronucleus test (reference value: 100%); type: toxicity, cell-based; conditions: HepG2 cells, read-out: Survival
[37] = Genotoxicity in human HepG2 assessed as survival at 427 uM measured after 24 hrs by micronucleus test (reference value: 100%); type: toxicity, cell-based; conditions: HepG2 cells, read-out: Survival
[38] = Genotoxicity in human HepG2 assessed as survival at 2135 uM measured after 24 hrs by micronucleus test (reference value: 100%); type: toxicity, cell-based; conditions: HepG2 cells, read-out: Survival
[39] = Genotoxicity in human HepG2 assessed as survival at 4270 uM measured after 24 hrs by micronucleus test (reference value: 100%); type: toxicity, cell-based; conditions: HepG2 cells, read-out: Survival

With `CCCCCc1ccc(-c2cn(-c3c([N+](=O)[O-])ncn3C)nn2)cc1` as the compound, how does the Activity [1] read?
Its Activity is “Toxic”.

And the Activity_index (RAW264.7 [2])?
The Activity_index was 245.

What about the Activity_index (RAW264.7 [3]) of the same compound?
Its Activity_index is 223.

What about the Activity (RAW264.7 [4]) of the same compound?
Its Activity is 11.

What about the Activity (RAW264.7 [5]) of the same compound?
The Activity was 13.

What about the viability at 24 h, 175 µM [6] of the same compound?
The viability at 24 h, 175 µM was 99%.

And the viability at 24 h, 350 µM [7]?
Its viability at 24 h, 350 µM is 99%.

And the viability at 24 h, 1750 µM [8]?
Its viability at 24 h, 1750 µM is 85%.

And the viability at 24 h, 3500 µM [9]?
Its viability at 24 h, 3500 µM is 71%.

And the Activity_index (HepG2 [10])?
Its Activity_index is 111.

What about the Activity_index (HepG2 [11]) of the same compound?
The Activity_index was 91.

And the Activity_index (HepG2 [12])?
The Activity_index was 59.

What about the Activity_index (HepG2 [13]) of the same compound?
The Activity_index was 53.

And the Activity (HepG2 [14])?
Its Activity is 14.

What about the Activity (HepG2 [15]) of the same compound?
The Activity was 42.

What about the viability at 24 h, 350 µM [16] of the same compound?
Its viability at 24 h, 350 µM is 95%.

And the viability at 24 h, 1750 µM [17]?
Its viability at 24 h, 1750 µM is 80%.

What about the viability at 24 h, 3500 µM [18] of the same compound?
The viability at 24 h, 3500 µM was 64%.

Which Activity (RAW264.7 [19]) does the source give for `Cn1cnc([N+](=O)[O-])c1-n1cc(C2CC2)nn1` here?
Its Activity is “Non-Toxic”.

What about the Activity [20] of the same compound?
The Activity was “Toxic”.

And the Activity [21]?
The Activity was “Non-Toxic”.

What about the Activity_index (RAW264.7 [22]) of the same compound?
Its Activity_index is 30.

What about the Activity_index (RAW264.7 [23]) of the same compound?
The Activity_index was 34.

And the Activity_index (RAW264.7 [24])?
Its Activity_index is 36.

And the Activity (RAW264.7 [25])?
The Activity was 12.

What about the Activity (RAW264.7 [26]) of the same compound?
The Activity was 11.

And the Activity (RAW264.7 [27])?
The Activity was 20.

And the viability at 24 h, 213 µM [28]?
The viability at 24 h, 213 µM was 99%.

And the viability at 24 h, 2135 µM [29]?
Its viability at 24 h, 2135 µM is 96%.

And the Activity_index (HepG2 [30])?
The Activity_index was 97.

And the Activity_index (HepG2 [31])?
The Activity_index was 101.

And the Activity_index (HepG2 [32])?
The Activity_index was 124.

And the Activity (HepG2 [33])?
The Activity was 17.

And the Activity (HepG2 [34])?
The Activity was 19.

What about the Activity (HepG2 [35]) of the same compound?
The Activity was 27.

What about the viability at 24 h, 213 µM [36] of the same compound?
Its viability at 24 h, 213 µM is 99%.

And the viability at 24 h, 427 µM [37]?
Its viability at 24 h, 427 µM is 99%.

And the viability at 24 h, 2135 µM [38]?
The viability at 24 h, 2135 µM was 95%.

What about the viability at 24 h, 4270 µM [39] of the same compound?
Its viability at 24 h, 4270 µM is 91%.
